Assay results published in the C3SDB collision cross section collection.

Details: [M+H]+; instrument: TW; Major Mix IMS/Tof Calibration Kit (Waters)

| SMILES | collision cross section (N2) [Å²] |
| --- | --- |
| Cn1c(=O)c2c(ncn2C)n(C)c1=O [Caffeine] | 138.3 |
| OCCN1CCN(CC/C=C2/c3ccccc3Sc3ccc(Cl)cc32)CC1 [Zuclopenthixol] | 194 |
| CN(Cc1cnc2nc(N)nc(N)c2n1)c1ccc(C(=O)N[C@@H](CCC(=O)O)C(=O)O)cc1 [Methotrexate] | 196.2 |
| O=C1CC[C@@]2(O)[C@H]3Cc4ccc(O)c5c4[C@@]2(CCN3CC2CC2)[C@H]1O5 [Naltrexone] | 176.5 |
| CCOC(=O)[C@H]1[C@@H](OC(=O)c2ccccc2)C[C@@H]2CC[C@H]1N2C [Cocaine-M Cocaethylene] | 173.5 |
| CCCCN1CCCCC1C(=O)Nc1c(C)cccc1C (stereo unspecified) [Bupivacaine] | 173.1 |
| CN1C(C(=O)Nc2ccccn2)=C(O)c2sccc2S1(=O)=O [Tenoxicam] | 170.4 |
| CCN(CCO)CCCC(C)Nc1ccnc2cc(Cl)ccc12 (stereo unspecified) [Hydroxychloroquine] | 180.2 |
| NC(=O)N1c2ccccc2C=Cc2ccccc21 [Carbamazepine] | 150.3 |
| COC(=O)C1=C(C)NC(C)=C(C(=O)OCCN(C)Cc2ccccc2)C1c1cccc([N+](=O)[O-])c1 (stereo unspecified) [Nicardipine] | 212.1 |
| Cc1nccn1CC1CCc2c(c3ccccc3n2C)C1=O (stereo unspecified) [Ondansetron] | 171.7 |
| COc1ccc(C(CN(C)C)C2(O)CCCCC2)cc1 (stereo unspecified) [Venlafaxine] | 171.6 |
| OCCOCCN1CCN(C2=Nc3ccccc3Sc3ccccc32)CC1 [Quetiapine] | 192.9 |
| COc1ccc2c(c1)[C@]13CCCC[C@@H]1[C@H](C2)N(C)CC3 [Dextromethorphan] | 166.3 |
| CCCN1C[C@H](CSC)C[C@@H]2c3cccc4[nH]cc(c34)C[C@H]21 [Pergolide] | 177.9 |
| CNC[C@@H](C)CN1c2ccccc2S(=O)c2ccc(OC)cc21 (stereo partly specified) [Levomepromazine-M N-desmethyl sulfoxide] | 172.9 |
| Fc1ccccc1C1=NCC(=S)N(CC(F)(F)F)c2ccc(Cl)cc21 [Quazepam] | 174.9 |
| CCOc1ccccc1O[C@H](c1ccccc1)[C@H]1CNCCO1 [Reboxetine] | 174 |
| CNC(=O)CSP(=S)(OC)OC [Dimethoate] | 139.9 |

| SMILES | collision cross section (N2) [Å²] |
| --- | --- |
| CCN1CCCC1CNC(=O)c1cc(S(=O)(=O)CC)c(N)cc1OC (stereo unspecified) [Amisulpride] | 193.1 |
| NC(=O)C1(N2CCCCC2)CCN(CCCC(=O)c2ccc(F)cc2)CC1 [Pipamperone] | 194.1 |
| CCCC(=O)Nc1ccc(OCC(O)CNC(C)C)c(C(C)=O)c1 (stereo unspecified) [Acebutolol] | 190.2 |
| CN1[C@@H]2CC[C@H]1C[C@@H](OC(=O)C(CO)c1ccccc1)C2 (stereo partly specified) [Atropine] | 171.5 |
| O=C(O)C(c1ccccc1)C1CCCCN1 (stereo unspecified) [Ritalinic acid] | 150 |
| CCCc1nn(C)c2c(=O)[nH]c(-c3cc(S(=O)(=O)N4CCN(C)CC4)ccc3OCC)nc12 [Sildenafil] | 212.7 |
| CN1CCN(C2=Nc3ccccc3Oc3ccc(Cl)cc32)CC1 [Loxapine] | 175.7 |
| CNCCCN1c2ccccc2CCc2ccccc21 [Imipramine-M Nor] | 163.3 |
| NC(=O)C(CCN1CCC(O)(c2ccc(Cl)cc2)CC1)(c1ccccc1)c1ccccc1 [Loperamid-M didesmethyl] | 211.9 |
| C[C@]12C[C@@H]3C[C@](C)(C1)C[C@@](N)(C3)C2 [Memantine] | 146.6 |
| CCNC(C)C(=O)c1ccccc1 (stereo unspecified) [Ethcathinone] | 139.2 |
| CNC(C)C(=O)c1ccc(C)cc1 (stereo unspecified) [Mephedrone] | 143.1 |
| CC(CN1CCN(CCOCCO)CC1)CN1c2ccccc2Sc2ccccc21 (stereo unspecified) [Dixyrazine] | 201 |
| CN1CCN(C(c2ccccc2)c2ccccc2)CC1 [Cyclizine] | 166.7 |
| Cc1ccc(O)c([C@H](CCN(C(C)C)C(C)C)c2ccccc2)c1 [Tolterodine] | 182.1 |
| OCCN1CCN(CC/C=C2\c3ccccc3Sc3ccc(C(F)(F)F)cc32)CC1 [Flupentixol] | 199.4 |
| CN(C)CCCC1(c2ccc(F)cc2)OCc2cc(C#N)ccc21 (stereo unspecified) [Citalopram] | 180.1 |
| CCCN(CCC)CCc1cccc2c1CC(=O)N2 [Ropinirole] | 163.8 |
| CC(C)NCC(O)COc1ccc(CC(N)=O)cc1 (stereo unspecified) [Atenolol] | 159.5 |

| SMILES | collision cross section (N2) [Å²] |
| --- | --- |
| CC/C(=C(\c1ccccc1)c1ccc(OCCN(C)C)cc1)c1ccccc1 [Tamoxifen] | 197.1 |
| CNC1=Nc2ccc(Cl)cc2C(c2ccccc2)=[N+]([O-])C1 [Chlordiazepoxide] | 170.4 |
| O=C1CC2(CCCC2)CC(=O)N1CCCCN1CCN(c2ncccn2)CC1 [Buspirone] | 199.3 |
| FC(F)(F)c1ccc2c(c1)C(=CCCN1CCNCC1)c1ccccc1S2 [Flupentixol-M N-desalkyl] | 186 |
| O=C(O)Cc1ccccc1Nc1c(Cl)cccc1Cl [Diclofenac] | 157.7 |
| Nc1ccc(S(=O)(=O)Nc2ccccn2)cc1 [Sulfapyridine] | 150.8 |
| COc1ccc(CCN(C)CCCC(C#N)(c2ccc(OC)c(OC)c2)C(C)C)cc1OC (stereo unspecified) [Verapamil] | 210.2 |
| CCN(CC)C(C)C(=O)c1ccccc1 (stereo unspecified) [Amfepramone] | 148 |
| CCC(=O)O[C@](Cc1ccccc1)(c1ccccc1)[C@H](C)CN(C)C [Dextropropoxyphene] | 180.7 |
| C[C@H](CS)C(=O)N1CCC[C@H]1C(=O)O [Captopril] | 142.5 |
| Cc1nnc2n1-c1ccc(Cl)cc1C(c1ccccc1)=NC2 [Alprazolam] | 171.5 |
| Nc1nnc(-c2cccc(Cl)c2Cl)c(N)n1 [Lamotrigine] | 151.2 |
| Fc1ccc(C(c2ccc(F)cc2)N2CCN(C/C=C/c3ccccc3)CC2)cc1 [Flunarizine] | 211.5 |
| CN(C)CCC(c1ccc(Cl)cc1)c1ccccn1 (stereo unspecified) [Chlorphenamine] | 164.5 |
| CC(C)NCC(O)COc1cccc2[nH]ccc12 (stereo unspecified) [Pindolol] | 159.1 |
| CC(CN1c2ccccc2Sc2ccccc21)N(C)C (stereo unspecified) [Promethazine] | 163.7 |
| O=C1CN=C(c2ccccc2Cl)c2cc([N+](=O)[O-])ccc2N1 [Clonazepam] | 168.2 |
| CCC(=O)C1(c2cccc(O)c2)CCN(C)CC1 [Ketobemidone] | 159.7 |
